Assays:
[1] = target: 17β-HSD2 (Homo sapiens (Human), UniProt P37059); assay: 17β-HSD2 test assay (recombinant protein from Sf9 insect cells, 3H-estradiol/NAD+); type: biochemical; conditions: for inhibition at 0.1 µM: read-out: HSD2 100 nM (% inhibition), inhibitor 100 nM; for inhibition at 1 µM: read-out: HSD2 1 μM (% inhibition), inhibitor 1 μM
Protocol: Recombinant protein obtained from Sf9 insect cells (0.1 μg/ml) is incubated with 20 mM KH2PO4, pH 7.4, 30 nM ^3H-estradiol and 1 mM NAD+ for 30 min at RT in the presence of the potential inhibitor in a concentration of 1 μM or 100 nM. The stock solutions of the compounds are prepared in DMSO so that the final concentration of DMSO in the sample is 1%. After the prescribed incubation time, the reaction is quenched by adding trichloroacetic acid (10% final concentration). The samples are centrifuged in microtitration plates at 400 rpm for 10 min, and the supernatants are charged on a reversed-phase HPLC equipped with a Waters Symmetrie C18 column and
Waters Sentry Guard column. The isocratic HPLC run is performed at RT with a flow rate of 1 ml/min and acetonitrile/water 48:52 as the eluent. The radioactivity was measured by means of a Packard Flow Scintillation Analyzer. The percent inhibition was calculated by means of the formulas stated above.

[2] = target: 17β-HSD1 (Homo sapiens (Human), UniProt P14061); assay: 17β-HSD1 test assay (recombinant protein from Sf9 insect cells, 3H-estrone/NADPH); type: biochemical; conditions: for inhibition at 1 µM: read-out: HSD 1 μM (% inhibition of HSD1); for inhibition at 0.1 µM: read-out: HSD1 100 nM (% inhibition)
Chain of 17β-HSD1 (P14061 whole entry): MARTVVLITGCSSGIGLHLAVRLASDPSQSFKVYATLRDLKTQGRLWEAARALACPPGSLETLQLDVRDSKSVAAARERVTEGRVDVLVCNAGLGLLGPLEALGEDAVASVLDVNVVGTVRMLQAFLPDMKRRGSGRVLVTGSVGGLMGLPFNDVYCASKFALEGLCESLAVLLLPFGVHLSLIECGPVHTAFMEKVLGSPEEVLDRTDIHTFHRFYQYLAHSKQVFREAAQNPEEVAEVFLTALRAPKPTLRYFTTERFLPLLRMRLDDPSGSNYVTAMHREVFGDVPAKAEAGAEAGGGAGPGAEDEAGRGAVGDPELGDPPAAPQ
Protocol: Recombinant protein obtained from Sf9 insect cells (0.1 μg/ml) is incubated with 20 mM KH2PO4, pH 7.4, 30 nM ^3H-estrone and 1 mM NADPH for 30 min at RT in the presence of the potential inhibitor in a concentration of 1 μM or 100 nM. The stock solutions of the compounds are prepared in DMSO (dimethylsulfoxide) so that the final concentration of DMSO in the sample is 1%. After the prescribed incubation time, the reaction is quenched by adding trichloroacetic acid (10% final concentration). The samples are centrifuged in microtitration plates at 400 rpm for 10 min, and the supernatants are charged on a reversed-phase HPLC equipped with a Waters Symmetrie C18 column and Waters Sentry Guard column. The isocratic HPLC run is performed at RT with a flow rate of 1 ml/min and acetonitrile/water 48:52 as the eluent. The radioactivity was measured by means of a Packard Flow Scintillation Analyzer. […]

Chain of 17β-HSD2 (P37059 whole entry): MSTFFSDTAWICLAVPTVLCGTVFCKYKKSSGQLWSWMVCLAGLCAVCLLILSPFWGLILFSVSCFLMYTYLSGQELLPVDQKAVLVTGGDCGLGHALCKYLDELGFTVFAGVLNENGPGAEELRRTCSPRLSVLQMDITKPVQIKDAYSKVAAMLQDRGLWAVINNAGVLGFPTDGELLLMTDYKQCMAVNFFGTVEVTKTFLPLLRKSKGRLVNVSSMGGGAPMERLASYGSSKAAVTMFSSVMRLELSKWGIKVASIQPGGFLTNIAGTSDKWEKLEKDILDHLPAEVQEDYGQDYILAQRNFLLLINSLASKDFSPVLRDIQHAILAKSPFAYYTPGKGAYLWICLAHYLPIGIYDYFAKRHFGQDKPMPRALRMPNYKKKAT

inhibition at 0.1 µM [1] [%]	inhibition at 1 µM [1] [%]	inhibition at 1 µM ([2]; inhibitor 1 μM) [%]	inhibition at 0.1 µM ([2]; inhibitor 100 nM) [%]	HSD1 100 nM (% inhibition) ([2]; inhibitor 100 nM) [%]	HSD 1 μM (% inhibition of HSD1) ([2]; inhibitor 1 μM) [%]	Compound
< 10	< 10	69.9	20.5			O=C(Nc1cccc(O)c1)c1c(O)ccc2cc(-c3cccc(O)c3)ccc12 [Compound 43, 2-Hydroxy-N,6-bis(3-hydroxyphenyl)-1-naphthamide]
33.9	73.2	57.6	19.2			CNC(=O)/C=C/c1c(O)ccc2cc(-c3cccc(O)c3)ccc12 [Compound 39, (E)-3-(2-Hydroxy-6-(3-hydroxyphenyl)naphthalene-1-yl)-N-methylacrylamide]
< 10	21.6	76.3	21.8			CNC(=O)c1c(O)ccc2cc(-c3cccc(O)c3)ccc12 [Compound 41, 2-Hydroxy-6-(3-hydroxyphenyl)-N-methyl-1-naphthamide]
< 10	35.8	80	< 10			CNC(=O)CCc1c(O)ccc2cc(-c3cccc(O)c3)ccc12 [Compound 55, 3-(2-Hydroxy-6-(3-hydroxyphenyl)naphthalene-1-yl)-N-methylpropanamide]
18	67	74.4	32.3			N#Cc1cc(-c2cccc(O)c2)cc2ccc(O)cc12 [Compound 53, 7-Hydroxy-3-(3-hydroxyphenyl)-1-naphthonitrile]
		62	17			O=C(Nc1ccccc1)c1cc2cc(-c3cccc(O)c3)ccc2cc1O [Compound 38, 3-Hydroxy-7-(3-hydroxyphenyl)-N-phenyl-2-naphthamide]
		< 10	< 10			Oc1ccc2cc(-c3ccccc3)ccc2c1 [Compound 2, 6-Phenylnaphthalene-2-ol]
		56.9	24			Oc1cccc(-c2ccc3cc(O)ccc3n2)c1 [Compound 12, 2-(3-Hydroxyphenyl)quinolin-6-ol]
		82.4	76.8			O=C(NCCc1ccc(S(=O)(=O)Nc2cccc(-c3c(O)ccc4cc(-c5cccc(O)c5)ccc34)c2)cc1)C(F)(F)F [Compound 88, 2,2,2-trifluoro-N-[2-(4-{3-[2-hydroxy-6-(3-hydroxyphenyl)-1-naphthyl]phenylsulfamoyl}phenyl)ethyl]acetamide]
		< 10	< 10			O=C(O)c1ccc(-c2ccc3cc(O)ccc3c2)cc1 [Compound 8, 4-(6-hydroxy-2-naphthyl)benzoic acid]
		82.9	71.5			O=[N+]([O-])c1ccc(S(=O)(=O)Nc2cccc(-c3c(O)ccc4cc(-c5cccc(O)c5)ccc34)c2)cc1 [Compound 81, N-{3-[2-hydroxy-6-(3-hydroxyphenyl)-1-naphthyl]phenyl}-4-nitrobenzenesulfonamide]
		79.7	62.1			N#Cc1ccccc1S(=O)(=O)Nc1cccc(-c2c(O)ccc3cc(-c4cccc(O)c4)ccc23)c1 [Compound 76, 2-cyano-N-{3-[2-hydroxy-6-(3-hydroxyphenyl)-1-naphthyl]phenyl}benzenesulfonamide]
		84	37			O=C(Nc1ccccn1)c1c(O)ccc2cc(-c3cccc(O)c3)ccc12 [Compound 49, 2-Hydroxy-6-(3-hydroxyphenyl)-N-(pyridin-2-yl)-1-naphthamide]
		< 10	< 10			O=C(Nc1ccc(-c2ccc3cc(O)ccc3c2)cc1O)c1ccccc1 [Compound 36, N-[2-Hydroxy-4-(6-hydroxy-2-naphthyl)phenyl]benzamide]

Further lines, the compound ahead of its results:

Compound	inhibition at 0.1 µM [1] [%]	inhibition at 1 µM [1] [%]	inhibition at 1 µM ([2]; inhibitor 1 μM) [%]	inhibition at 0.1 µM ([2]; inhibitor 100 nM) [%]	HSD1 100 nM (% inhibition) ([2]; inhibitor 100 nM) [%]	HSD 1 μM (% inhibition of HSD1) ([2]; inhibitor 1 μM) [%]
O=C(/C=C/c1c(O)ccc2cc(-c3cccc(O)c3)ccc12)Nc1ccccc1 [Compound 40, (E)-3-(2-Hydroxy-6-(3-hydroxyphenyl)naphthalene-1-yl)-N-phenylacrylamide]	28.1	76.9	60.4	< 10		
O=C(O)CCC(=O)Nc1ccc(-c2c(O)ccc3cc(-c4cccc(O)c4)ccc23)cc1 [Compound 67, 4-(4-(2-Hydroxy-6-(3-hydroxyphenyl)naphthalene-1-yl)phenylamino)-4-oxobutanoic acid]	24.2	68	62.3	< 10		
Cc1nnc(NC(=O)c2c(O)ccc3cc(-c4cccc(O)c4)ccc23)s1 [Compound 48, 2-Hydroxy-6-(3-hydroxyphenyl)-N-(5-methyl-1,3,4-thiadiazol-2-yl)-1-naphthamide]		24	68			
Oc1cccc(-c2ccc3c(-c4ccc(N5CCOCC5)cc4)c(O)ccc3c2)c1 [Compound 65, 6-(3-Hydroxyphenyl)-1-(4-morpholinophenyl)naphthalene-2-ol]	12.4	31.9	64.9	31.9		
Oc1cccc(-c2ccc3c(-c4cncnc4)c(O)ccc3c2)c1 [Compound 61, 6-(3-Hydroxyphenyl)-1-(pyrimidin-5-yl)naphthalene-2-ol]	15.5	51.7	22.1	< 10		
O=S(=O)(Nc1cccc(-c2c(O)ccc3cc(-c4cccc(O)c4)ccc23)c1)c1cccs1 [Compound 87, N-{3-[2-hydroxy-6-(3-hydroxyphenyl)-1-naphthyl]phenyl}thiophene-2-sulfonamide]			80.6	71.7		
O=C(Nc1ncccn1)c1c(O)ccc2cc(-c3cccc(O)c3)ccc12 [Compound 50, 2-Hydroxy-6-(3-hydroxyphenyl)-N-(pyrimidin-2-yl)-1-naphthamide]			40	< 10		
Cc1cc(O)cc(-c2ccc3cc(O)ccc3c2)c1 [Compound 26, 6-(3-Hydroxy-5-methylphenyl)-2-naphthol]			41.7	14.3		
Oc1cc(-c2ccc3cc(O)ccc3c2)cc(-c2ccc3cc(O)ccc3c2)c1 [Compound 28, 6-[3-Hydroxy-5-(6-hydroxy-2-naphthyl)phenyl]-2-naphthol]			< 10	< 10		
CS(=O)(=O)NC(=O)c1cccc(-c2c(O)ccc3cc(-c4cccc(O)c4)ccc23)c1 [Compound 90, 3-(2-Hydroxy-6-(3-hydroxyphenyl)naphthalene-1-yl)-N-(methylsulfonyl)-benzamide]			77.3	16.5		
O=C(Nc1nccs1)c1c(O)ccc2cc(-c3cccc(O)c3)ccc12 [Compound 46, 2-Hydroxy-6-(3-hydroxyphenyl)-N-(thiazol-2-yl)-1-naphthamide]			53	< 10		
O=S(=O)(Nc1cccc(-c2c(O)ccc3cc(-c4cccc(O)c4)ccc23)c1)c1ccc(Cl)s1 [Compound 74, 5-chloro-N-{3-[2-hydroxy-6-(3-hydroxyphenyl)-1-naphthyl]-phenyl}thiophene-2-sulfonamide]			78	46.4		
CNC(=O)c1cc2cc(-c3cccc(O)c3)ccc2cc1O [Compound 37, 3-Hydroxy-7-(3-hydroxyphenyl)-N-methyl-2-naphthamide]			18	< 10		
O=S(=O)(Nc1cccc(-c2c(O)ccc3cc(-c4cccc(O)c4)ccc23)c1)c1ccc(Br)cc1OC(F)(F)F [Compound 82, 4-bromo-N-{3-[2-hydroxy-6-(3-hydroxyphenyl)-1-naphthyl]phenyl}-2-(trifluoromethoxy)benzenesulfonamide]			78.4	40.5		
Oc1cccc(-c2cc3cc(O)ccc3[nH]2)c1 [Compound 1, 2-(3-Hydroxyphenyl)-1H-indol-5-ol]			< 10	< 10		
N-{3-[2-hydroxy-6-(3-hydroxyphenyl)-1-naphthyl]phenyl-3-nitrobenzenesulfonamide [Compound 75]					72.8	78.9
O=[N+]([O-])c1cc(C(F)(F)F)ccc1S(=O)(=O)Nc1cccc(-c2c(O)ccc3cc(-c4cccc(O)c4)ccc23)c1 [Compound 83, 2-nitro-N-{3-[2-hydroxy-6-(3-hydroxyphenyl)-1-naphthyl]phenyl}-4-(trifluoromethyl)benzenesulfonamide]			78.1	49.8		
Oc1ccc(-c2ccc3c(O)cccc3c2)cc1 [Compound 21, 6-(4-Hydroxyphenyl)-1-naphthol]			< 10	< 10		
